Data from the OligoGym collection.
Where “and” joins values, the source holds several entries; their conditions need not be identical. Equal entries are not always repeated. After the bases stand the sugars from the 5' end (letter, count) and the backbone: PS all phosphorothioate, else s phosphorothioate and o phosphodiester by linkage. Methylation of C is not given here. e = 2'-O-(2-methoxyethyl) (MOE); d = 2'-deoxy (DNA)

Target: DGAT2
Conditions: ASO

Sequence | target mRNA inhibition (HepG2, 10 µM) | target mRNA inhibition (HepG2, 2.5 µM) | target mRNA inhibition (HepG2, 0.12 µM) | target mRNA inhibition (HepG2, 20 µM)
GAGTAAGGGTATTCTGCTCA (sugars e5 d10 e5, PS) | 91% and 93% and 96% |  |  | 
AAATCACAGAATTATCAGCA (sugars e5 d10 e5, PS) | 92% | 57% |  | 
TGAGGTTTAGGCTATGGTCT (sugars e5 d10 e5, PS) | 77% | 66% |  | 
GTGCTTTCTAAGTACCCTTT (sugars e5 d10 e5, PS) | 92% and 89% | 81% and 78% |  | 
GACCCACTGTGACCTCCTGC (sugars e5 d10 e5, PS) |  |  | 25% | 
CTGACACACAATATCCATGG (sugars e5 d10 e5, PS) | 93% and 85% | 76% and 57% |  | 
ACAGTGGTGATGGGCTTGGA (sugars e5 d10 e5, PS) |  |  | 52% | 
GGTGATGGGCTTGGAGTAGG (sugars e5 d10 e5, PS) |  |  | 36% | 
TGGAGCTCAGAGACTCAGCC (sugars e3 d14 e3, PS) |  |  | 76% | 
GTGCAGCCTACAAGAGCCTG (sugars e5 d10 e5, PS) | 86% | 67% |  | 
ATAGTTCCTGGTGGTCAGCA (sugars e5 d10 e5, PS) |  |  | 46% | 
AGCCAGGTAAGGCCGTATGC (sugars e5 d10 e5, PS) |  |  | 70% | 
AGCTTCACCAGGGCCTCCAT (sugars e5 d10 e5, PS) |  |  | 42% | 
ACAGGACCCACTGGAGCACT (sugars e2 d13 e5, PS) |  |  | 68% | 
GGGTTATTGCAACCACTAGG (sugars e5 d10 e5, PS) | 80% | 74% |  | 
CCAGGTAAGGCCGTATGCCT (sugars e3 d14 e3, PS) |  |  | 71% | 
TAGCTCTCAGTGAAGCTGGA (sugars e5 d10 e5, PS) | 90% and 91% | 84% and 81% |  | 
CCAATGCCTAGGTCACA (sugars e3 d10 e4, PS) | 83% | 61% |  | 
TCGCTAGAGTACAAGTTCTC (sugars e5 d10 e5, PS) | 93% | 88% |  | 
GCCCAGTTTCGGACCCACTG (sugars e5 d10 e5, PS) | 46% | 37% |  | 65%
GGACCCACTGGAGCACT (sugars e3 d10 e4, PS) | 93% | 57% |  | 
TTAAGGGTTCATGGATCCCC (sugars e5 d10 e5, PS) | 91% and 93% | 63% and 75% and 79% |  | 

Sequence | target mRNA inhibition (HepG2, 10 µM) | target mRNA inhibition (HepG2, 2.5 µM) | target mRNA inhibition (HepG2, 0.12 µM) | target mRNA inhibition (HepG2, 20 µM)
GGACCCACTGGAGCACTGAG (sugars e2 d13 e5, PS) | 28% | 24% | 86% | 67%
GTGCTCTCCAACTCCTCCCC (sugars e5 d10 e5, PS) |  |  | 34% | 
TCAGCAGGTTGTGTGTCTTC (sugars e5 d10 e5, PS) |  | 3% | 56% | 
CTCACATGCCTGAGGGCAGC (sugars e5 d10 e5, PS) | 87% | 65% |  | 
AGCCTGGATGGTGGTTGCAA (sugars e5 d10 e5, PS) | 78% | 73% |  | 
CACTTGATCTGGGACCCAAA (sugars e5 d10 e5, PS) | 92% | 41% |  | 
GAGTAGGGCACCAGCCCCCA (sugars e5 d10 e5, PS) |  |  | 0% | 
GGGCAAAAAGTGAATCATCT (sugars e5 d10 e5, PS) | 72% | 39% |  | 
TAGCATTGCCACTCCCATTC (sugars e5 d10 e5, PS) |  |  | 71% | 
GGTTGTGTGTCTTCACCAGC (sugars e3 d14 e3, PS) |  |  | 70% | 
GGGTCAAGGTCACTCAGCCA (sugars e5 d10 e5, PS) |  |  | 33% | 
GTGGTCTGGGAACAGCAGCA (sugars e5 d10 e5, PS) | 66% and 72% | 72% and 61% |  | 
ATGCCTGAGGGCAGCAGTGT (sugars e5 d10 e5, PS) |  |  | 45% | 
ATGAGCTCTCAAGTCTTCCT (sugars e5 d10 e5, PS) | 93% | 67% |  | 
ATCCTGGAGGCCAGTCCAGG (sugars e5 d10 e5, PS) |  |  | 18% | 
AAAACTTAGGCATGCTTCCT (sugars e5 d10 e5, PS) | 83% | 53% |  | 
GTTGCAATGTTGCCATC (sugars e3 d10 e4, PS) | 89% and 96% | 69% and 75% |  | 
CCTAAGGAGTGAGGGTATCT (sugars e5 d10 e5, PS) | 87% and 92% | 39% and 50% |  | 
TTTCTAGGGAAGCATGTGCA (sugars e5 d10 e5, PS) | 90% and 88% | 67% and 68% |  | 
GCTGCATCCATGTCATCAGC (sugars e2 d16 e2, PS) |  |  | 53% | 
TAGGCTTTAGAAATTCACCA (sugars e5 d10 e5, PS) | 89% and 82% and 91% | 71% and 72% and 76% |  | 
ATAGCATTGCCACTCCCATT (sugars e3 d14 e3, PS) |  |  | 71% | 

Sequence | target mRNA inhibition (HepG2, 10 µM) | target mRNA inhibition (HepG2, 2.5 µM) | target mRNA inhibition (HepG2, 0.12 µM) | target mRNA inhibition (HepG2, 20 µM)
GGTCTTTTTGGCTGCCCTGC (sugars e5 d10 e5, PS) | 87% and 90% | 81% and 84% |  | 
CACCAGGGCCTCCATGTACA (sugars e2 d13 e5, PS) |  |  | 69% | 
CAGCTGTGATGACTTCCCAG (sugars e5 d10 e5, PS) | 81% | 49% |  | 
TTGCCAGGCATGGAGCTCAG (sugars e5 d10 e5, PS) |  |  | 37% | 
GCAGCCTGGACAAGTCCTGC (sugars e3 d14 e3, PS) | 73% | 48% and 59% | 83% | 81%
TTTCTTTTAAATAACCCACA (sugars e5 d10 e5, PS) |  |  | 1% | 
CCAGCCCCCAGGTGTCGGAG (sugars e5 d10 e5, PS) |  |  | 50% | 
CCACTGTGACCTCCTGCCAC (sugars e5 d10 e5, PS) |  |  | 30% | 
AGGCACCTGTTACTACATGT (sugars e5 d10 e5, PS) | 93% and 91% | 78% |  | 
CACCATAATCTGCACAGGTT (sugars e5 d10 e5, PS) | 88% and 93% | 86% and 94% |  | 
GGAGGAGTTCTCGAATATCC (sugars e5 d10 e5, PS) | 74% | 84% |  | 
GCATTGCCACTCCCATTCTT (sugars e5 d10 e5, PS) |  |  |  | 94% and 91% and 95%
GTTTACTGCATAGCTGAGCA (sugars e5 d10 e5, PS) | 79% and 96% | 69% and 82% |  | 
GCCACTCAGCCTTGGAGCCA (sugars e5 d10 e5, PS) | 86% and 85% | 90% and 83% |  | 
AGCTCATGAGAAGCTTAGAA (sugars e5 d10 e5, PS) | 82% | 62% |  | 
TAATTTCTTTTAAATAACCC (sugars e5 d10 e5, PS) |  |  | 0% | 
TGGCCTGGATGGCAACCTAA (sugars e5 d10 e5, PS) | 83% | 46% |  | 
TGCAGCTAATGATACAAGGT (sugars e5 d10 e5, PS) | 89% | 67% |  | 
GTGTGTCTTCACCAGCTGGA (sugars e5 d10 e5, PS) |  |  | 53% | 
TCACCAGGGCCTCCATGTAC (sugars e3 d14 e3, PS) |  |  | 68% | 
GCTCAGAGACTCAGCCGCAC (sugars e3 d14 e3, PS) |  |  | 69% | 
CTTATCCTTGAGGGTCTCAT (sugars e5 d10 e5, PS) | 77% | 56% |  | 

Sequence | target mRNA inhibition (HepG2, 10 µM) | target mRNA inhibition (HepG2, 2.5 µM) | target mRNA inhibition (HepG2, 0.12 µM) | target mRNA inhibition (HepG2, 20 µM)
GAAATCTGAGTGCTGCTAAC (sugars e5 d10 e5, PS) | 91% | 71% |  | 
TGCCATTTAATGAGCTTCAC (sugars e5 d10 e5, PS) | 91% and 92% | 79% and 81% |  | 
GCCATCATACTAGACTATGC (sugars e5 d10 e5, PS) | 91% and 90% | 88% and 81% |  | 
CCCACTGGGACATCTGGCCC (sugars e5 d10 e5, PS) | 88% | 66% |  | 
AGTCTTCCTTCTCCTCCACC (sugars e5 d10 e5, PS) | 84% | 69% |  | 
TAGAGCACTTGATCTGGGAC (sugars e5 d10 e5, PS) | 81% and 85% | 38% and 46% |  | 
GCTCAGATCACTCTGCACAG (sugars e5 d10 e5, PS) | 90% and 86% and 89% | 77% and 81% and 82% |  | 
TCCGGACTGAATGTCACCTC (sugars e5 d10 e5, PS) | 85% and 90% | 75% |  | 
GTCCTAGTGCCCCAGGG (sugars e3 d10 e4, PS) | 93% and 95% | 76% and 86% |  | 
GCGACAGCCCTGTGCCAGCC (sugars e5 d10 e5, PS) | 99% | 72% |  | 
TGTTGCCATCATACTAGACT (sugars e5 d10 e5, PS) | 75% | 64% |  | 
TCTCCTGTTTGATGGGT (sugars e3 d10 e4, PS) | 63% | 41% |  | 
TATGCCTGGGAACTTCTTGC (sugars e5 d10 e5, PS) |  |  | 26% | 
CACACAGCCCAGTTTCGGAC (sugars e5 d10 e5, PS) |  |  | 24% | 
ATGACCTTGGGTCAGAGGAA (sugars e5 d10 e5, PS) | 46% | 61% |  | 
GGTTTACTGCATAGCTGAGC (sugars e5 d10 e5, PS) | 86% and 76% | 79% and 72% |  | 
ATCACAGAATTATCAGCAGT (sugars e5 d10 e5, PS) | 92% | 59% |  | 
TCTGATCAATTATTAACCTA (sugars e5 d10 e5, PS) | 55% | 20% |  | 
CGCAGGACCCCGGAGTAGGC (sugars e5 d10 e5, PS) |  |  | 75% and 70% | 
GCGGCAGAGCCAGGACTGAA (sugars e5 d10 e5, PS) |  |  | 35% | 
AAAGCAAATAGTCTATGGTG (sugars e5 d10 e5, PS) |  |  | 46% | 
